Experimental data reported in US20210177805A1 (Ovid Therapeutics Inc., priority 2018, published 2021).

Tests used:
[1] = system: subjects with Angelman syndrome; experiment: Treatment-related and treatment-emergent adverse events in patients with Angelman syndrome
Protocol: This multicenter, randomized, parallel (3-arm), double-blind, placebo-controlled trial enrolled 88 patients including adults (n=66) and adolescents (n=22) aged 13 to 49 years of age, diagnosed with Angelman syndrome. […] The dosing schedules that were assessed against placebo were once daily (QD): An evening dose titrated to the target dose of 15 mg unless not tolerated; and twice daily (BID): Evening and morning doses titrated to the target doses of 15 mg evening dose and 10 mg morning dose unless not tolerated.
Gastrointestinal adverse events may be considered fundamental to the behavioral disturbances seen in autistic spectrum disorders, such as autism and Angelman syndrome.

[2] = human, in vivo
Protocol: Each subject was expected to complete all 6 treatment periods and there was a washout of at least 4 days between each treatment period.
Each oral dosing within Treatment Periods consisted of 2 capsules of test drug taken simultaneously at each scheduled dosing. […] Subjects received their study drug after an overnight fast with 240 mL of water in the morning about 8:00 AM. Water was permitted ad libitum except within 1 hour prior to and after study drug administration. No food was allowed for 4 hours post dose.

[3] = system: subjects with Angelman syndrome; experiment: Sleep diary in patients with Angelman syndrome; format: in vivo, human; details: for 6-week LS Mean difference, total sleep time at night / 12-week LS Mean difference, total sleep time at night: change from baseline
Text: The most notable change from patient sleep diaries was in the number of nights slept independently. In the QD dose cohort, one quarter of patients slept every night with parents, at 12 weeks, this had improved to only 1 in 5 nights; in the placebo group, the most effected quarter slept 3 of 4 nights with parents, which had improved to 2 of 4 nights at 12 weeks (P<0.001, Chi Square). The observed and change from baseline in total hours of sleep time at night (assessed from subject Sleep Diary) is provided in Table III.

[4] = system: subjects with Angelman syndrome; experiment: Efficacy in patients with Angelman syndrome, Clinical Global Impressions (CGI-S, CGI-I); format: in vivo, human
Text: CGI-S scale assessed all sub-domains of Angelman syndrome (gross and fine motor ability, sleep, and adaptive behavior) plus globally by the investigator. […] The Clinical Global Impressions-Improvement (CGI-I) scale was used to assess all sub-domains of Angelman syndrome (gross and fine motor ability, sleep, and adaptive behavior) plus globally by the investigator and caregiver. CGI-I is a 7-point scale in which the investigator rates the improvement or worsening of symptoms compared to baseline.
Moreover, the percentage who were very much improved on CGI-I in the QD group vs placebo went from 20% (vs. 11%) to 27% (vs. 9%) to 33% (vs. 0%) progressing from the oldest to youngest cohorts.

Structure (SMILES): Oc1noc2c1CCNC2 [gaboxadol, 4,5,6,7-tetrahydroisoxazolo [5,4-c]pyridine-3-ol]
- Abdominal Pain upper, subjects (%) ([1]; BID dosing (N = 29)): 0
- At least 1 Adverse Event, subjects (%) ([1]; BID dosing (N = 29)): 19 (66%)^
- Diarrhea, subjects (%) ([1]; BID dosing (N = 29)): 1 (3.4%)
- Gastrointestinal disorders, subjects (%) ([1]; BID dosing (N = 29)): 4 (13.8%)
- Nausea, subjects (%) ([1]; BID dosing (N = 29)): 2 (6.9%)
- Retching, subjects (%) ([1]; BID dosing (N = 29)): 1 (3.4%)
- Vomiting, subjects (%) ([1]; BID dosing (N = 29)): 1 (3.4%)
- Abdominal Pain upper, subjects (%) ([1]; Combined (N = 58)): 0
- At least 1 Adverse Event, subjects (%) ([1]; Combined (N = 58)): 37 (64%)^
- Diarrhea, subjects (%) ([1]; Combined (N = 58)): 1 (1.7%)
- Gastrointestinal disorders, subjects (%) ([1]; Combined (N = 58)): 4 (6.9%)
- Nausea, subjects (%) ([1]; Combined (N = 58)): 2 (3.4%)
- Retching, subjects (%) ([1]; Combined (N = 58)): 1 (1.7%)
- Vomiting, subjects (%) ([1]; Combined (N = 58)): 1 (1.7%)
- Abdominal Pain upper, subjects (%) ([1]; QD dosing (N = 29)): 0
- At least 1 Adverse Event, subjects (%) ([1]; QD dosing (N = 29)): 18 (62%)
- Diarrhea, subjects (%) ([1]; QD dosing (N = 29)): 0
- Gastrointestinal disorders, subjects (%) ([1]; QD dosing (N = 29)): 0
- Nausea, subjects (%) ([1]; QD dosing (N = 29)): 0
- Retching, subjects (%) ([1]; QD dosing (N = 29)): 0
- Vomiting, subjects (%) ([1]; QD dosing (N = 29)): 0
- CL (CL/F row, footnote for 10 mg IV) ([2]; iv, 10 mg): 438 mL/min
- AUC0-∞ Slope (90% CI), dose proportionality assessment ([2]; po): 0.98 (0.95, 1.01)
- 6-week LS Mean sleep time (total sleep time at night, Sleep Diary) ([3]; BID dosing (N = 29)): 8.95 (1.1) hours
- 12-week LS Mean sleep time (total sleep time at night, Sleep Diary) ([3]; BID dosing (N = 29)): 8.84 (1.1) hours
- 6-week LS Mean difference, total sleep time at night ([3]; BID dosing): 0.30 (1.1) hours
- 12-week LS Mean difference, total sleep time at night ([3]; BID dosing): 0.18 (0.97) hours
- 6-week LS Mean sleep time (total sleep time at night, Sleep Diary) ([3]; Combined (N = 58)): 8.93 (1.3) hours
- 12-week LS Mean sleep time (total sleep time at night, Sleep Diary) ([3]; Combined (N = 58)): 8.80 (1.1) hours
- 6-week LS Mean difference, total sleep time at night ([3]; Combined): 0.22 (0.94) hours
- 12-week LS Mean difference, total sleep time at night ([3]; Combined): 0.07 (1.0) hours
- 6-week LS Mean sleep time (total sleep time at night, Sleep Diary) ([3]; QD dosing (N = 29)): 8.91 (1.5) hours
- 12-week LS Mean sleep time (total sleep time at night, Sleep Diary) ([3]; QD dosing (N = 29)): 8.76 (1.2) hours
- 6-week LS Mean difference, total sleep time at night ([3]; QD dosing): 0.14 (0.81) hours
- 12-week LS Mean difference, total sleep time at night ([3]; QD dosing): −0.04 (1.1) hours
- CGI-I ([4]; QD 15 mg evening dose, 7-point scale, vs. 3.8 placebo, p=0.0006): 3.0
- CGI-I 12-week LS Mean ([4]; QD dosing (N = 29), clinician assessed, MMRM): 3.00 (0.16)
